SMILES strings stand for the structures. Like-named read-outs stand apart in the source and are kept apart here.

In the assay the target is T1, H^+ /K^+ ATPase (Oryctolagus cuniculus, UniProt P27112).
T1 construct: Rabbit gastric glands are isolated from gastric mucosa; from tissue; host or cells: rabbit isolated gastric glands (gastric mucosa, corpus region of the stomach)
In words: Inhibition of 14C-aminopyrine uptake in rabbit isolated gastric glands stimulated by DBcAMP or high K+ (anti-secretory activity). The class given is cell-based. The settings on record: for antisecretory activity: result in words in the introduction, test not named; for inhibition at 100 µM: 10^-4 M, % inhibition of maximum response to secretagogue. The protocol: Compounds of formula I may be tested for anti-secretory activity by their ability to inhibit the highly specific proton transporting enzyme H^+ /K^+ ATPase.
Potential H^+ /K^+ ATPase inhibitors are evaluated by a technique involving the measurement of aminopyrine accumulation in rabbit isolated gastric glands. Aminopyrine accumulates in acid-secreting cells; therefore, uptake of aminopyrine is increased by secretagogues and an inhibitor of acid secretion will reduce the response to one or more secretagogues depending upon its site of action.
The following test procedure is used:
Rabbit gastric glands are isolated from gastric mucosa from the corpus region of the stomach by a method based on one described by Berglindh T., Obrink K. J., Acta Physiol. Scand.
Compounds are tested at a concentration of 10^-4 M, for their ability to inhibit ^14 C-aminopyrine uptake in gastric glands, stimulated by DBcAMP and high K^+ respectively. Results are expressed as the % inhibition of the maximum response to the secretagogue induced by the test compound.

Where [1] appears, read: 14C-aminopyrine uptake in rabbit gastric glands stimulated by DBcAMP, read-out: % Inhibition to stimulation by: DBcAMP.
[2] abbreviates: 14C-aminopyrine uptake in rabbit gastric glands stimulated by high K^+, read-out: % Inhibition to stimulation by: K^+.

T1 sequence (P27112 whole entry): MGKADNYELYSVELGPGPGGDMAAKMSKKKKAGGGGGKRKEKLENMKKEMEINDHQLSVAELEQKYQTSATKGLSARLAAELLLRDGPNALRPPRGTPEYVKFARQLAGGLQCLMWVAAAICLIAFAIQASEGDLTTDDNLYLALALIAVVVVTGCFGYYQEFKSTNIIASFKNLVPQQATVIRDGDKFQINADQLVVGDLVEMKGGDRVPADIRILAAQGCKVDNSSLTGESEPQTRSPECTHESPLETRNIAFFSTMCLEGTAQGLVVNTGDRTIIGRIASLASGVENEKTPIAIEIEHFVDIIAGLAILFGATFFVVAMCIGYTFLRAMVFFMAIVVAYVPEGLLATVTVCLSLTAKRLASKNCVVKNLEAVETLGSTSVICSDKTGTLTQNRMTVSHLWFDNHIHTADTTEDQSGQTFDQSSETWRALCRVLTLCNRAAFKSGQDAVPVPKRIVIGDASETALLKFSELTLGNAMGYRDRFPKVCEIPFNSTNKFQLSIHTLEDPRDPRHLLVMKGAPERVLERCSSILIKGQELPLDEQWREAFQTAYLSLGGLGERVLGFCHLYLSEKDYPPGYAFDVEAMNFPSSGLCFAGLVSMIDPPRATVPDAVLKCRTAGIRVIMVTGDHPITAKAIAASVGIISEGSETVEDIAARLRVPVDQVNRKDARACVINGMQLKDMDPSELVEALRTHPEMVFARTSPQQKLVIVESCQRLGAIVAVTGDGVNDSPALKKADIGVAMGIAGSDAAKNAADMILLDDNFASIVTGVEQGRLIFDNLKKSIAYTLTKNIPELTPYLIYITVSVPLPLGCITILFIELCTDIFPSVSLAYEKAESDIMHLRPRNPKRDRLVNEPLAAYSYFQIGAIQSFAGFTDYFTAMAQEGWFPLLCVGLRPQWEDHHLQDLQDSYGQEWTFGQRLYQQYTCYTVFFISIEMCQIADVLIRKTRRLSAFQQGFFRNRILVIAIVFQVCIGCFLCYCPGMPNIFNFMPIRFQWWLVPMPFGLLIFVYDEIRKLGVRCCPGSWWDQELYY
T1 sequence (P18597 whole entry partner): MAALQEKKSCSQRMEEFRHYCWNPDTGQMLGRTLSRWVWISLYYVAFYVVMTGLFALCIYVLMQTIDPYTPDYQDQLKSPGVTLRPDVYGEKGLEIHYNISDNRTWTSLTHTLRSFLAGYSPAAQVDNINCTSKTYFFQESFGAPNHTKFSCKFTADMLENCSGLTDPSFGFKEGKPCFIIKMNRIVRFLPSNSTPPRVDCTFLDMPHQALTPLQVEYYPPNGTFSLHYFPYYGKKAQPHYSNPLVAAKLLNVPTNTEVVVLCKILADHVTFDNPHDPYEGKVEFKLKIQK

Regarding `O=C(Nc1ccccc1Cl)c1cc[n+]([O-])cc1` [2-chlorophenyl, reference compound], the antisecretory activity result is recorded as “not active”.
On to `O=C(Nc1ccc(Cl)cc1NC(=O)c1cc[n+]([O-])cc1)c1cc[n+]([O-])cc1` [4-Chloro-N,N'-1,2-phenylenebis(4-pyridinecarboxamide-1-oxide)], for which the inhibition (commonly the change of the read-out against control, counted positive when it falls) at 100 µM reads like this: under setting [1], 20.5%; under setting [2], 27%.
With `Nc1ccc(NC(=O)c2cc[n+]([O-])cc2)cc1` [4-amino, reference compound], the antisecretory activity entry is “inactive”.
In the case of `Nc1cccc(NC(=O)c2cc[n+]([O-])cc2)c1` [Example 3-amino, reference compound], the antisecretory activity entry was “inactive”.
`Nc1cc(Cl)c(Cl)cc1NC(=O)c1cc[n+]([O-])cc1` [N-(2-amino-4,5-dichlorophenyl)-4-pyridinecarboxamide-1-oxide]: the inhibition at 100 µM under setting [2] turned out to be 36%.
As to `Nc1ccccc1NC(=O)c1cc[n+]([O-])cc1` [N-(2-aminophenyl)pyridine-4-carboxamide-1-oxide], the antisecretory activity result was “exhibited antisecretory activity”. Also, the inhibition at 100 µM under setting [1] stood at 106%. Under setting [2], the inhibition at 100 µM amounted to 130%.
For `O=C(Nc1ccc(Cl)cc1)c1cc[n+]([O-])cc1` [N-(4-chlorophenyl)-4-pyridinecarboxamide-1-oxide], in that order: “exhibited antisecretory activity”, 22% and 32%.
In the case of `O=C(Nc1ccc([N+](=O)[O-])cc1)c1cc[n+]([O-])cc1` [N-(4-nitrophenyl)pyridine-4-carboxamide-1-oxide], the inhibition at 100 µM was determined as 33% under setting [1] and 84% under setting [2].
As for `Nc1ccccc1NC(=O)c1ccncc1` [N--(2-aminophenyl)pyridine-4-carboxamide, N-(2-aminophenyl)-4-pyridinecarboxamide], under setting [2], the inhibition at 100 µM amounted to 54%.
Same read-out and setting: as for `O=C(Nc1ccc(Cl)c(C(F)(F)F)c1)c1cc[n+]([O-])cc1` [N-[4-chloro-3-(trifluoromethyl)phenyl]-4-pyridinecarboxamide-1-oxide], the figure is 168%.
`O=C(Nc1ccccc1)c1cc[n+]([O-])cc1` [phenyl, reference compound]: the antisecretory activity entry was “not active”.

Values taken from patent US4728658A, “Pyridine derivatives” (John Wyeth & Brother Limited, priority 1984, dated 1988).
